Data from patent US20100113599A1, “AMPHIPATHIC CARBOXYLATES FOR THE TREATMENT OF IMMUNE-RELATED DISORDERS” (Syndromex Ltd. c/o Yissum Research Development Company, of, priority 2007, published 2010).

Tests used:
[1] = tested on: fibrinogen α mRNA; test: Fibrinogen mRNA expression in IL-6-stimulated HepG2 cells (real time RT-PCR); type: cell-based, human; details: 200 mM M16αα 40 h, control as well as IL-6 (20 ng/ml, last 15 h) induced cells, normalized by GAPDH
Experimental: HepG2 cells were incubated for 40 h with […] M16αα. IL-6 (20 ng/ml) was added for the last 15 h. Total RNA was prepared and was analyzed by real time RT-PCR for fibrinogen a mRNA. Transcript levels were normalized by GAPDH.
The hypolipidemic effect of both M16ααα and/or M16ββ (MEDICA drugs) and its application in the treatment of Metabolic Syndrome, led the inventors to try and examine the effect of these drugs on another crucial risk factor in Metabolic Syndrome CVD patients, namely, the inflammatory indications. These indications are identified by markers like C-reactive protein (CRP), Serum amyloid A (SAA), fibrinogen and ICAM that promote atherosclerotic CVD. To evaluate the possible anti-inflammatory effect of MEDICA drugs, the inventors first examined the effect of M16αα, on the expression of different acute phase proteins (APP). Human liver cells (HepG2 cells) were stimulated with IL-6 and incubated with the MEDICA drug, M16αα. Total RNA was analyzed by real time PCR for expression of mRNA of different acute phase proteins (APP).

[2] = tested on: STAT3; test: IL-6-induced STAT3 phosphorylation in Hek293 kidney cells (Western blot); type: cell-based; details: 250 μM 9 h, serum free medium 0.2% Albumin, IL-6 20 ng/ml last 5.5 h
Experimental: Hek293 cells were incubated for 9 h with M16αα (250 μM) in serum free medium containing 0.2% Albumin. IL-6 (20 ng/ml) was added during the last 5.5 h period. Western blots of cell lysates were reacted with anti gp130 and anti P-STAT3 (Y705) antibodies and normalized by β-actin. Abbreviations: cont. (control).
The examined effect of MEDICA drugs on expression of APP, was further analyzed by analyzing the effect of M16αα on downstream elements in the signaling pathway leading to expression of APP. Signal Transducers and Activators of Transcription 3 (STAT3), is a transcription factor phosphorylated by JAK kinases in response to cytokine activation of a cell surface receptor tyrosine kinases. Cytokines that activate STAT3 include growth hormone, IL-6 family cytokines, Oncostatin, LIF, CNTF and G-CSF, Leptin and others. As illustrated by FIG. 1, upon cytokine activation, the STAT3 proteins dimerize and are localized to the nucleus where they activate transcription of APP as well as of other cytokine-responsive genes coding for cell survival, growth and proliferation. Therefore, the inventors next examined whether the effect of MEDICA drugs on the expression of APP is a result of interfering with STAT3 transcription activity or whether MEDICA drugs are involved in a more upstream element of the transduction pathway such as the gp130 receptor. […]

[3] = tested on: gp130 transcript; test: gp130 transcript levels in HepG2 cells (real time RT-PCR); type: cell-based, human; details: 200 μM up to 40 h (2, 4, 8, 24, 40 h), normalized with GAPDH
Experimental: As shown by FIGS. 5-7, treatment of M16αα results in reduction in the protein levels of gp130, which is the tyrosine kinase receptor upstream to STAT3 in this pathway. The inventors thus next examined whether M16αα affects gp130 at the transcription level. Therefore, HepG2 cells were incubated with M16αα (200 μM) for up to 40 h. Total RNA was prepared at 2 h, 4 h, 8 h, 24 h and 40 h, and gp130 transcription was analyzed by real time RT-PCR and normalized with GAPDH.

[4] = tested on: gp130; test: Overexpressed gp130 protein levels in transfected Hek293 cells (Western blot); type: cell-based; details: Hek293 transfected with gp130 expression vector; 200 mM M16αα 9 h, 20 h after transfection
Experimental: Hek293 cells were transfected with an expression vector for gp130. Following 20 h M16αα ([…]) was added for 9 h. Western blots of cell lysates were reacted with anti gp130 antibodies and normalized by β-actin. Abbreviations: cont. (control).
In order to examine the mode of action of M16αα in reducing gp130 protein levels, Hek293 cells were transfected with an expression vector for the gp130 protein. Following 20 h after transfection, M16αα ([…]) was added for 9 h. Western blots of cells lysates were reacted with anti-gp130 antibodies and normalized by β-actin. […] This effect was clearer when smaller amounts of plasmid were used for transfection (0.2 microgram).

[5] = tested on: HT29 colon cancer cells; test: HT29 cell number, trypan blue exclusion assay; type: cell-based; details: 200 μM, days 1, 2, 3 and 6
Experimental: Abbreviations: D. (days) cont, (control), RCN (relative cell number).
Cells were cultured in Dulbecco's Modified Eagle Medium (DMEM) supplemented with 10% fetal calf serum, glutamine and antibiotics (100,000 units/L penicillin and 100 mg/L streptomycin sulfate).
The involvement of MEDICA drugs in signal transduction pathways related to immuno-modulatory mechanisms have led the inventors to further investigate the effect of the MEDICA drugs in different disorders associated with abnormal immune reaction. Since cancerous processes may be promoted as a result of interruption of the Th1/Th2 balance, the possible beneficial effect of the MEDICA drugs on tumor proliferation and progression have been next examined. The effect of different concentrations M16αα on cell proliferation was first examined in vitro using the HT29 colon cancer cells as a model for colon cancer. Cells were cultured in the presence of different concentrations of M16αα (50, 100, and 200 μM). Samples obtained from days 1, 2, 3 and 6 were analyzed for cell number using the trypan blue exclusion assay. Proliferation was measured by BrdU incorporation assay.

[6] = tested on: U266 cells; test: Cell cycle arrest markers in MM U266 cells (Western blot); type: cell-based; details: 200 μM, 24 h
Experimental: U266 cells were cultured with 200 μM M16αα in RPMI 1640 medium with 10% FCS for 24 h, lysed, Western blotted and reacted with anti Cyclin D1, p-P53 (S15) and p-Rb as indicated.

SMILES: CC(C)(CCCCCCCCCCCCC(C)(C)C(=O)O)C(=O)O [M16αα, 2,2,15,15-tetramethyl-hexadecanedioic acid]
- fibrinogen mRNA levels [1]: clearly reduced
- IL-6-induced phosphorylation of STAT3 Y705 [2]: Inhibition
- gp130 transcript levels [3]: remained unaffected
- gp130 protein levels (overexpressed) [4]: clear reduction
- cell number (relative cell number) [5]: significant reduction
- Cyclin D1 expression [6]: reduction
- phosphorylated Rb [6]: reduction
- phosphorylated p53 [6]: increase
